# Measured values published in ChEMBL document CHEMBL1275354, “Anticonvulsant activity of 2,4(1H)-diarylimidazoles in mice and rats acute seizure models” (Bioorg Med Chem, 2010).
# Active and inactive are the calls of the source. The calls are words filed in the database; no cut-off is given here.
# What was measured:
# Mus musculus [1] = test: Neurotoxicity in ip dosed albino CF1 mouse assessed as minimum dose required to cause toxicity after 0.5 hrs by rotarod test; assay type: organism-based; details: in vivo
# Mus musculus [2] = test: Anticonvulsant activity in albino CF1 mouse assessed as protection against subcutaneous metrazole-induced seizures at 150 mg/kg, ip after 1 hr; assay type: functional, organism-based; parameters: dose 150 mg/kg
# Mus musculus [3] = test: Neurotoxicity in albino CF1 mouse assessed as minimal motor impairment at 30 mg/kg, ip after 0.5 hrs by rotarod test; assay type: toxicity, organism-based; parameters: dose 30 mg/kg, route intraperitoneal; details: in vivo
# Mus musculus [4] = test: Anticonvulsant activity in albino CF1 mouse assessed as protection against maximal electroshock-induced seizures at 100 mg/kg, ip after 0.5 hrs; assay type: functional, organism-based; parameters: dose 100 mg/kg
# Mus musculus [5] = test: Anticonvulsant activity against subcutaneous metrazole-induced seizures in ip dosed albino CF1 mouse assessed as minimum effective dose after 4 hrs; assay type: functional; details: albino CF1, 4 h, read-out: MED
# Mus musculus [6] = test: Anticonvulsant activity in albino CF1 mouse assessed as protection against subcutaneous metrazole-induced seizures at 300 mg/kg, ip after 1 hr; assay type: functional, organism-based; parameters: dose 300 mg/kg
# Mus musculus [7] = test: Neurotoxicity in albino CF1 mouse assessed as minimal motor impairment at 140 mg/kg, ip after 1 hr by rotarod test; assay type: toxicity, organism-based; parameters: dose 140 mg/kg, route intraperitoneal; details: in vivo
# Mus musculus [8] = test: Anticonvulsant activity ip dosed albino CF1 mouse assessed as protection against maximal electroshock-induced seizures after 1 hr; assay type: functional
# Mus musculus [9] = species: Mus musculus; test: Protective index, ratio of TD50 for albino CF1 mouse after 1 hr by rotarod test to ED50 for albino CF1 mouse by maximal electroshock seizures test after 1 hr; assay type: functional
# Mus musculus [10] = test: Anticonvulsant activity in albino CF1 mouse assessed as protection against maximal electroshock-induced seizures at 60 mg/kg, ip after 1 hr; assay type: functional, organism-based; parameters: dose 60 mg/kg
# [11] = Neurotoxicity in ip dosed albino CF1 mouse assessed as minimal motor impairment after 1 hr by rotarod test; assay type: toxicity, organism-based; details: in vivo
# Mus musculus [12] = test: Anticonvulsant activity in albino CF1 mouse assessed as protection against subcutaneous metrazole-induced seizures at 75 mg/kg, ip after 1 hr; assay type: functional, organism-based; parameters: dose 75 mg/kg
# [13] = target: Sodium channel protein type 2 subunit alpha (Homo sapiens, UniProt Q99250); test: Inhibition of human NaV1.2 expressed in HEK cells at -60 mV holding potential by patch clamp recording technique; assay type: cell-based, HEK293
# Sequence of Sodium channel protein type 2 subunit alpha (Q99250 whole entry): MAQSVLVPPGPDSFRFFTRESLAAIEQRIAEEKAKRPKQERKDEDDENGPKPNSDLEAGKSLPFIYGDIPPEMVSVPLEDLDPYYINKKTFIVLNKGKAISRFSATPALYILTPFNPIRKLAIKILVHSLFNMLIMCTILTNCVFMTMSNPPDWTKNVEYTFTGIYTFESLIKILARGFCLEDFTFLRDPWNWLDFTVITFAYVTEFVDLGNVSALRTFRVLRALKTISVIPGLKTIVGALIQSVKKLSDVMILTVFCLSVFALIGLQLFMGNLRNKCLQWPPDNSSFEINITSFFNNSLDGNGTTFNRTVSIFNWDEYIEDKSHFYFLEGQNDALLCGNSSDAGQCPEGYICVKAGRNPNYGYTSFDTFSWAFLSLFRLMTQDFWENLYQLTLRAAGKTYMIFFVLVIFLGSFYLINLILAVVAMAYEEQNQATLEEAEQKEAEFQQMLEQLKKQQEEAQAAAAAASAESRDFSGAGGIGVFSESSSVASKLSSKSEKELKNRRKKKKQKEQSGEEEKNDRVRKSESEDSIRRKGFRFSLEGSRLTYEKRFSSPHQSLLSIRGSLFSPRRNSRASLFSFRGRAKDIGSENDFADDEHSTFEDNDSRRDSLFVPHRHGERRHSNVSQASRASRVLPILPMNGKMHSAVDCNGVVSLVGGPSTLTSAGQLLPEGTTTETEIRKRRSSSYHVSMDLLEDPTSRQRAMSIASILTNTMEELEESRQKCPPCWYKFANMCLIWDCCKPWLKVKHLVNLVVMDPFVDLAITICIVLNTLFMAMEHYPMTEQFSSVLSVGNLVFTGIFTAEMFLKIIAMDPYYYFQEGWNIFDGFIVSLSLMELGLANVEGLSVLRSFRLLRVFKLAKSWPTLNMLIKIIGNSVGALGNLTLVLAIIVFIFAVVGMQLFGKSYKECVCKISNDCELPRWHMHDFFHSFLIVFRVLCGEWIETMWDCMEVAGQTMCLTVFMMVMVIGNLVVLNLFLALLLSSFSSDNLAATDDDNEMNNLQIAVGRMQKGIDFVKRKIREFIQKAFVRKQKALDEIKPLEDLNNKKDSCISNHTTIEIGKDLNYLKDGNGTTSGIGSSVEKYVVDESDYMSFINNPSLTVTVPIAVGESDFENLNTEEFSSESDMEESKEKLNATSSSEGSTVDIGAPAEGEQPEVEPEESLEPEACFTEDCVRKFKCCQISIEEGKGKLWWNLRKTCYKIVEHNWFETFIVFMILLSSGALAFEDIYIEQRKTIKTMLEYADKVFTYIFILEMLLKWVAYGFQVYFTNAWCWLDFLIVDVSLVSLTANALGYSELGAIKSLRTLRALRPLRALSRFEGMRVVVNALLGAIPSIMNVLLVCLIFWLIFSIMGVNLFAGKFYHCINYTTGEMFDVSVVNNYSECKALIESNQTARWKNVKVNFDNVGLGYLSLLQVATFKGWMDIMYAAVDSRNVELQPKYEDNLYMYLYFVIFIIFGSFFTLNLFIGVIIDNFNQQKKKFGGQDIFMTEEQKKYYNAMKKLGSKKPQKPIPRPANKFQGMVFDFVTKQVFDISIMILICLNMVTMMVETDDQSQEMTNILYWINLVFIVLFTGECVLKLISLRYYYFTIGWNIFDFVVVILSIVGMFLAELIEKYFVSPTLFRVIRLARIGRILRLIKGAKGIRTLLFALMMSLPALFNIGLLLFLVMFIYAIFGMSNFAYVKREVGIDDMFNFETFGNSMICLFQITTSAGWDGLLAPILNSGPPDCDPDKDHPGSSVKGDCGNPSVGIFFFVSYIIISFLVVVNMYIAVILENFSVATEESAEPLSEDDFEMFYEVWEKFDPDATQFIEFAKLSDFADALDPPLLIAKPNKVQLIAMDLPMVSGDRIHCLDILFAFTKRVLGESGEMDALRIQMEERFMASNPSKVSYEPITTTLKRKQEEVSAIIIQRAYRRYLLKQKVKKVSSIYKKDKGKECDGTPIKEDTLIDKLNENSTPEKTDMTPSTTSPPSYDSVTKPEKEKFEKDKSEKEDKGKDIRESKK
# Mus musculus [14] = species: Mus musculus; test: Protective index, ratio of TD50 for albino CF1 mouse by rotarod test to ED50 for albino CF1 mouse by maximal electroshock seizures test; assay type: functional
# Rattus norvegicus [15] = test: Neurotoxicity in albino Sprague-Dawley rat assessed as minimal motor impairment at 30 mg/kg, po by rotarod test; assay type: toxicity, organism-based; parameters: dose 30 mg/kg, route oral; details: in vivo
# Mus musculus [16] = test: Anticonvulsant activity ip dosed albino CF1 mouse assessed as protection against maximal electroshock-induced seizures after 0.25 hrs; assay type: functional
# Rattus norvegicus [17] = test: Anticonvulsant activity in albino Sprague-Dawley rat assessed as protection against maximal electroshock-induced seizures at 30 mg/kg, po after 0.25 hrs; assay type: functional, organism-based; parameters: dose 30 mg/kg
# Rattus norvegicus [18] = test: Anticonvulsant activity in albino Sprague-Dawley rat assessed as protection against maximal electroshock-induced seizures at 30 mg/kg, po after 0.5 hrs; assay type: functional, organism-based; parameters: dose 30 mg/kg
# Rattus norvegicus [19] = test: Anticonvulsant activity in albino Sprague-Dawley rat assessed as protection against maximal electroshock-induced seizures at 30 mg/kg, po after 1 hr; assay type: functional, organism-based; parameters: dose 30 mg/kg
# Rattus norvegicus [20] = test: Anticonvulsant activity in albino Sprague-Dawley rat assessed as protection against maximal electroshock-induced seizures at 30 mg/kg, po after 2 hrs; assay type: functional, organism-based; parameters: dose 30 mg/kg
# Rattus norvegicus [21] = test: Anticonvulsant activity in albino Sprague-Dawley rat assessed as protection against maximal electroshock-induced seizures at 30 mg/kg, po after 4 hrs; assay type: functional, organism-based; parameters: dose 30 mg/kg
# Mus musculus [22] = test: Neurotoxicity in albino CF1 mouse assessed as minimal motor impairment at 30 mg/kg, ip after 4 hrs by rotarod test; assay type: toxicity, organism-based; parameters: dose 30 mg/kg, route intraperitoneal; details: in vivo
# Mus musculus [23] = test: Neurotoxicity in albino CF1 mouse assessed as minimal motor impairment at 100 mg/kg, ip after 0.5 hrs by rotarod test; assay type: toxicity, organism-based; parameters: dose 100 mg/kg, route intraperitoneal; details: in vivo
# Mus musculus [24] = test: Neurotoxicity in albino CF1 mouse assessed as minimal motor impairment at 100 mg/kg, ip after 4 hrs by rotarod test; assay type: toxicity, organism-based; parameters: dose 100 mg/kg, route intraperitoneal; details: in vivo
# Mus musculus [25] = test: Neurotoxicity in albino CF1 mouse assessed as minimal motor impairment at 300 mg/kg, ip after 0.5 hrs by rotarod test; assay type: toxicity, organism-based; parameters: dose 300 mg/kg, route intraperitoneal; details: in vivo
# Mus musculus [26] = test: Neurotoxicity in albino CF1 mouse assessed as minimal motor impairment at 300 mg/kg, ip after 4 hrs by rotarod test; assay type: toxicity, organism-based; parameters: dose 300 mg/kg, route intraperitoneal; details: in vivo
# Mus musculus [27] = test: Anticonvulsant activity in albino CF1 mouse assessed as protection against maximal electroshock-induced seizures at 100 mg/kg, ip after 2 hrs; assay type: functional, organism-based; parameters: dose 100 mg/kg
# Mus musculus [28] = test: Neurotoxicity in albino CF1 mouse assessed as minimal motor impairment at 100 mg/kg, ip after 0.25 hrs by rotarod test; assay type: toxicity, organism-based; parameters: dose 100 mg/kg, route intraperitoneal; details: in vivo
# Mus musculus [29] = test: Neurotoxicity in albino CF1 mouse assessed as minimal motor impairment at 100 mg/kg, ip after 1 hr by rotarod test; assay type: toxicity, organism-based; parameters: dose 100 mg/kg, route intraperitoneal; details: in vivo
# Mus musculus [30] = test: Neurotoxicity in albino CF1 mouse assessed as minimal motor impairment at 100 mg/kg, ip after 2 hrs by rotarod test; assay type: toxicity, organism-based; parameters: dose 100 mg/kg, route intraperitoneal; details: in vivo
# Mus musculus [31] = test: Anticonvulsant activity in albino CF1 mouse assessed as protection against maximal electroshock-induced seizures at 100 mg/kg, ip after 4 hrs; assay type: functional, organism-based; parameters: dose 100 mg/kg
# Mus musculus [32] = test: Anticonvulsant activity in albino CF1 mouse assessed as protection against maximal electroshock-induced seizures at 300 mg/kg, ip after 0.5 hrs; assay type: functional, organism-based; parameters: dose 300 mg/kg
# Mus musculus [33] = test: Anticonvulsant activity in albino CF1 mouse assessed as protection against maximal electroshock-induced seizures at 300 mg/kg, ip after 4 hrs; assay type: functional, organism-based; parameters: dose 300 mg/kg
# Mus musculus [34] = test: Anticonvulsant activity in albino CF1 mouse assessed as protection against subcutaneous metrazole-induced seizures at 30 mg/kg, ip after 0.5 hrs; assay type: functional, organism-based; parameters: dose 30 mg/kg
# Mus musculus [35] = test: Anticonvulsant activity in albino CF1 mouse assessed as protection against subcutaneous metrazole-induced seizures at 30 mg/kg, ip after 4 hrs; assay type: functional, organism-based; parameters: dose 30 mg/kg
# Mus musculus [36] = test: Anticonvulsant activity in albino CF1 mouse assessed as protection against subcutaneous metrazole-induced seizures at 100 mg/kg, ip after 0.5 hrs; assay type: functional, organism-based; parameters: dose 100 mg/kg
# Mus musculus [37] = test: Anticonvulsant activity in albino CF1 mouse assessed as protection against subcutaneous metrazole-induced seizures at 100 mg/kg, ip after 4 hrs; assay type: functional, organism-based; parameters: dose 100 mg/kg
# Mus musculus [38] = test: Anticonvulsant activity in albino CF1 mouse assessed as protection against subcutaneous metrazole-induced seizures at 300 mg/kg, ip after 0.5 hrs; assay type: functional, organism-based; parameters: dose 300 mg/kg
# Mus musculus [39] = test: Anticonvulsant activity in albino CF1 mouse assessed as protection against subcutaneous metrazole-induced seizures at 300 mg/kg, ip after 4 hrs; assay type: functional, organism-based; parameters: dose 300 mg/kg
# Mus musculus [40] = test: Neurotoxicity in albino CF1 mouse assessed as minimal motor impairment at 30 to 300 mg/kg, po after 4 hrs by rotarod test; assay type: toxicity, organism-based; parameters: dose 30-300 mg/kg, route oral; details: in vivo
# Mus musculus [41] = test: Anticonvulsant activity in albino CF1 mouse assessed as protection against maximal electroshock-induced seizures at 30 mg/kg, ip after 0.5 hrs; assay type: functional, organism-based; parameters: dose 30 mg/kg
# Mus musculus [42] = test: Anticonvulsant activity in albino CF1 mouse assessed as protection against maximal electroshock-induced seizures at 30 mg/kg, ip after 4 hrs; assay type: functional, organism-based; parameters: dose 30 mg/kg
# Mus musculus [43] = test: Neurotoxicity in ip dosed albino CF1 mouse assessed as minimum dose required to cause toxicity after 4 hrs by rotarod test; assay type: organism-based; details: in vivo
# Mus musculus [44] = test: Anticonvulsant activity against maximal electroshock-induced seizures in ip dosed albino CF1 mouse assessed as minimum effective dose after 0.5 hrs; assay type: functional; details: read-out: MED
# Mus musculus [45] = test: Anticonvulsant activity against maximal electroshock-induced seizures in ip dosed albino CF1 mouse assessed as minimum effective dose after 4 hrs; assay type: functional; details: read-out: MED
# Mus musculus [46] = test: Neurotoxicity in albino CF1 mouse assessed as minimal motor impairment at 30 to 300 mg/kg, ip after 0.5 hrs by rotarod test; details: in vivo
compound,measurement,setting,value
FC(F)(F)c1ccc(-c2nc(-c3ccccc3)c[nH]2)cc1,MED,Mus musculus [1],> 300 mg/kg
same,Activity,Mus musculus [2],inactive
same,Activity,Mus musculus [3],Non-toxic
same,Activity,Mus musculus [4],inactive
same,minimal effective dose,Mus musculus [5],> 300 mg/kg
same,Activity,Mus musculus [6],inactive
same,Activity,Mus musculus [7],Non-toxic
same,ED50,Mus musculus [8],130 mg/kg
same,PI,Mus musculus [9],> 3.8
same,Activity,Mus musculus [10],inactive
same,TD50 at 1 h,[11],> 500 mg/kg
same,Activity,Mus musculus [12],inactive
same,IC50,[13],10.1 µM
same,PI,Mus musculus [14],>3.8
same,Activity,Rattus norvegicus [15],Non-toxic
same,ED50,Mus musculus [16],130 mg/kg
same,Activity,Rattus norvegicus [17],inactive
same,Activity,Rattus norvegicus [18],inactive
same,Activity,Rattus norvegicus [19],inactive
same,Activity,Rattus norvegicus [20],inactive
same,Activity,Rattus norvegicus [21],inactive
same,Activity,Mus musculus [22],Non-toxic
same,Activity,Mus musculus [23],Non-toxic
same,Activity,Mus musculus [24],Non-toxic
same,Activity,Mus musculus [25],Non-toxic
same,Activity,Mus musculus [26],Non-toxic
same,Activity,Mus musculus [27],inactive
same,Activity,Mus musculus [28],Non-toxic
same,Activity,Mus musculus [29],Non-toxic
same,Activity,Mus musculus [30],Non-toxic
same,Activity,Mus musculus [31],inactive
same,Activity,Mus musculus [32],Active
same,Activity,Mus musculus [33],Active
same,Activity,Mus musculus [34],inactive
same,Activity,Mus musculus [35],inactive
same,Activity,Mus musculus [36],inactive
same,Activity,Mus musculus [37],inactive
same,Activity,Mus musculus [38],inactive
same,Activity,Mus musculus [39],inactive
same,Activity,Mus musculus [40],Non-toxic
same,Activity,Mus musculus [41],inactive
same,Activity,Mus musculus [42],inactive
same,MED,Mus musculus [43],> 300 mg/kg
same,minimal effective dose,Mus musculus [44],100 mg/kg
same,minimal effective dose,Mus musculus [45],100 mg/kg
same,Activity,Mus musculus [46],Non-toxic
